Data published in patent US20250376472A1, “3-(PHENYLSULFONYL)-[1,2,3]TRIAZOLO[1,5A]QUINAZOLIN-5(4H)-ONE DERIVATIVES” (priority 2022, published 2025).

Target: T1, AgrA (Staphylococcus aureus, UniProt P0A0I7)
T1 construct: endogenous in cells; host or cells: S. aureus USA300 strain UAMS-1625 carrying a P3-lacZ reporter plasmid
Assay: cell-based
Design: species or system S. aureus
Details: for Ratio IC50 (in presence of HSA)/IC50 (in absence of HSA): 40 mg/mL HSA versus no HSA
Method: The inventive compounds are 3-(phenylsulfonyl)-[1,2,3]triazolo[1,5a]quinazolin-5(4h)-one derivatives comprising an N-bound piperazine or homopiperazine at the 8-position of the [1,2,3]triazolo[1,5a]quinazolin-5(4h)-one core, further substituted (on the second nitrogen atom) by an (optionally substituted) acetyl or propionyl amide group. […] Specifically, the reporter gene lacZ (which encodes the protein product β-galactosidase) was transfected into S. aureus with a plasmid under control of the P3 promoter. The compounds were serially diluted in lysogeny broth (LB), and incubated with S. aureus. Following incubation, the S. aureus cells were lysed and treated with 4-methylumbelliferyl-galactopyranoside (MUG). The β-galactosidase produced by expression of lacZ cleaved the MUG into galactopyranose and 4-methylumbelliferone, which was measured by fluorescence.
The resulting reporter strain was used to measure AgrA inhibitory activity as follows. From an overnight culture plate, cells were resuspended in 0.9% (w/v) saline solution and bacterial inoculum was prepared in LB medium with 5×10^5 CFU/ml. Compounds were two-fold serially diluted in LB and 50 μL of this 10× concentrated samples were added into the 96-deep well plate. 500 μL of bacterial suspension was finally added to the compounds or DMSO control. Plates were covered and incubated with shaking at 37° C. After 18 hours incubation, 100 μL was transferred to a new clear 96-well plate and the OD600 was measured using a TECAN Infinite F200 microplate reader to control for growth inhibition. Another 100 μL was transferred to a new black 96-well plate containing 30 μL of lysis buffer (20 mM Tris/HCl, 3 mM MgCl2, 0.5% Tween 20 (v/v), 0.5% NP-40 (v/v)) and the plate was incubated with shaking at 37° C. for 60 min. 20 μL of the substrate MUG (4-Methylumbelliferyl O-D-galactopyranoside) at 0.25 mg/ml was added and the fluorescence (excitation: 360 nm, emission: 450 mu) was measured with a TECAN Infinite F200 microplate reader after 3 hours incubation at 37° C. with shaking. The IC50 was determined using GraphPad PRISM after normalization to DMSO control.

[1] = LB medium supplemented with human serum albumin 40 mg/mL
[2] = LB medium, no human serum albumin, 18 hours incubation
[3] = IC50 at 40 mg/mL HSA, LB medium supplemented with human serum albumin 40 mg/mL
[4] = IC50 without HSA, LB medium, no human serum albumin, 18 hours incubation

T1 sequence (P0A0I7 whole entry): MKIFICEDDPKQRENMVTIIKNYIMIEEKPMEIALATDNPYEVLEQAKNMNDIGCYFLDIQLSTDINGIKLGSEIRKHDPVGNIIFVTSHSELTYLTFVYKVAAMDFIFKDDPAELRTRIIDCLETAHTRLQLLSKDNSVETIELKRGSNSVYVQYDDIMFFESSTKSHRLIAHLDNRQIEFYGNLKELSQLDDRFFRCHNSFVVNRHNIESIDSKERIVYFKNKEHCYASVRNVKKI

| Structure (SMILES) | Ratio IC50 (in presence of HSA)/IC50 (in absence of HSA) | IC50 at 40 mg/mL HSA [1] | IC50 without HSA [2] | IC50 [3] [µM] | IC50 [4] [µM] |
| --- | --- | --- | --- | --- | --- |
| Cc1ccc(S(=O)(=O)c2nnn3c2[nH]c(=O)c2ccc(N4CCCN(CC(=O)NC5CCCCC5)CC4)cc23)c(C)c1 [Compound 53] | +++ (+++: ratio ≤ 25) | ++ (++: 10 μg/mL < IC50 ≤ 50 μg/mL) | ++ (++: 1 μg/mL < IC50 ≤ 5 μg/mL) |  |  |
| Cc1ccc(S(=O)(=O)c2nnn3c2[nH]c(=O)c2ccc(N4CCN(CC(=O)N5CCCN(C(C)C)CC5)CC4)cc23)c(C)c1 [Compound 70] |  |  |  | 16.1 to 80.5 | < 1.61 |
| Cc1ccc(S(=O)(=O)c2nnn3c2[nH]c(=O)c2ccc(N4CCN(CC(=O)NCc5cocn5)CC4)cc23)c(C)c1 [Compound 114] |  |  |  | 17.3 to 86.7 | < 1.73 |
| CNC(=O)CN1CCN(c2ccc3c(=O)[nH]c4c(S(=O)(=O)c5ccc(C)cc5C)nnn4c3c2)CC1 [Compound 3] |  |  |  | < 19.6 | < 1.96 |
| Cc1ccc(S(=O)(=O)c2nnn3c2[nH]c(=O)c2ccc(N4CCN(CC(=O)NCCOCCO)CC4)cc23)c(C)c1 [Compound 21] |  |  |  | 17.1 to 85.7 | < 1.71 |
| Cc1ccc(S(=O)(=O)c2nnn3c2[nH]c(=O)c2ccc(N4CCN(CC(=O)NCCN5CCCC5)CC4)cc23)c(C)c1 [Compound 94] |  |  |  | 16.9 to 84.4 | 1.69 to 8.44 |
| COCCNC(=O)CN1CCN(c2ccc3c(=O)[nH]c4c(S(=O)(=O)c5ccc(C)cc5C)nnn4c3c2)CC1 [Compound 16] |  |  |  | < 18.1 | < 1.81 |
| CC(C)c1ccc(S(=O)(=O)c2nnn3c2[nH]c(=O)c2ccc(N4CCN(CC(=O)N5CCCC5)CC4)cc23)cc1 [Compound 166] | ++ (++: 25 < ratio ≤ 125) | ++ (++: 10 μg/mL < IC50 ≤ 50 μg/mL) | +++ (+++: IC50 ≤ 1 μg/mL) |  |  |
| Cc1ccc(S(=O)(=O)c2nnn3c2[nH]c(=O)c2ccc(N4CCN(CC(=O)NCc5cccnc5)CC4)cc23)c(C)c1 [Compound 111] |  |  |  | 17 to 85.2 | < 1.7 |
| Cc1ccc(S(=O)(=O)c2nnn3c2[nH]c(=O)c2ccc(N4CCN(CC(=O)N5CC(C6CC6)C5)CC4)cc23)c(C)c1 [Compound 73] |  |  |  | 17.4 to 86.9 | < 1.74 |
| Cc1ccc(S(=O)(=O)c2nnn3c2[nH]c(=O)c2ccc(N4CCN(CC(=O)N5CCC(CN)C5)CC4)cc23)c(C)c1 (centres unmarked) [Compound 137] |  |  |  | 17.3 to 86.4 | 1.73 to 8.64 |
| Cc1ccc(S(=O)(=O)c2nnn3c2[nH]c(=O)c2ccc(N4CCN(CC(=O)N5CCN(C(C)(C)C)CC5)CC4)cc23)c(C)c1 [Compound 59] |  |  |  | < 16.1 | 1.61 to 8.05 |
| Cc1ccc(S(=O)(=O)c2nnn3c2[nH]c(=O)c2ccc(N4CCN(CC(=O)N(C)C5CCCCC5)CC4)cc23)c(C)c1 [Compound 39] |  |  |  | 16.9 to 84.5 | < 1.69 |
| Cc1ccc(S(=O)(=O)c2nnn3c2[nH]c(=O)c2ccc(N4CCN(CC(=O)NCCN5CCCCC5)CC4)cc23)c(C)c1 [Compound 90] |  |  |  | 16.5 to 82.4 | 1.65 to 8.24 |
| Cc1ccc(S(=O)(=O)c2nnn3c2[nH]c(=O)c2ccc(N4CCN(CC(=O)N5CCC(N(C)C)CC5)CC4)cc23)c(C)c1 [Compound 65] |  |  |  | < 16.5 | 1.65 to 8.24 |
| Cc1ccc(S(=O)(=O)c2nnn3c2[nH]c(=O)c2ccc(N4CCN(CC(=O)NC5CCOCC5)CC4)cc23)c(C)c1 [Compound 87] | +++ (+++: ratio ≤ 25) | +++ (+++: IC50 ≤ 10 μg/mL) | +++ (+++: IC50 ≤ 1 μg/mL) |  |  |
| Cc1ccc(S(=O)(=O)c2nnn3c2[nH]c(=O)c2ccc(N4CCN(CC(=O)NCCCC(F)(F)F)CC4)cc23)c(C)c1 [Compound 15] |  |  |  | 16.5 to 82.6 | < 1.65 |
| Cc1ccc(S(=O)(=O)c2nnn3c2[nH]c(=O)c2ccc(N4CCN(CC(=O)NCCCC5CCCCC5)CC4)cc23)c(C)c1 [Compound 44] |  |  |  | 16.1 to 80.7 | 1.61 to 8.07 |
| Cc1ccc(S(=O)(=O)c2nnn3c2[nH]c(=O)c2ccc(N4CCN(CC(=O)NCC5CCCC5)CC4)cc23)c(C)c1 [Compound 37] |  |  |  | < 17.3 | < 1.73 |
| Cc1ccc(S(=O)(=O)c2nnn3c2[nH]c(=O)c2ccc(N4CCN(CC(=O)N5CCCC5CO)CC4)cc23)c(C)c1 (centres unmarked) [Compound 76] | +++ (+++: ratio ≤ 25) | ++ (++: 10 μg/mL < IC50 ≤ 50 μg/mL) | ++ (++: 1 μg/mL < IC50 ≤ 5 μg/mL) |  |  |
| Cc1ccc(S(=O)(=O)c2nnn3c2[nH]c(=O)c2ccc(N4CCN(CC(=O)NCCOCCOCCO)CC4)cc23)c(C)c1 [Compound 22] |  |  |  | 15.9 to 79.7 | 1.59 to 7.97 |

| Structure (SMILES) | Ratio IC50 (in presence of HSA)/IC50 (in absence of HSA) | IC50 at 40 mg/mL HSA [1] | IC50 without HSA [2] | IC50 [3] [µM] | IC50 [4] [µM] |
| --- | --- | --- | --- | --- | --- |
| Cc1ccc(S(=O)(=O)c2nnn3c2[nH]c(=O)c2ccc(N4CCN(CC(=O)N5CCCN(C)CC5)CC4)cc23)c(C)c1 [Compound 69] |  |  |  | < 16.9 | 1.69 to 8.44 |
| Cc1ccc(S(=O)(=O)c2nnn3c2[nH]c(=O)c2ccc(N4CCN(CC(=O)NCCCN5CCCC5=O)CC4)cc23)c(C)c1 [Compound 97] |  |  |  | 16.1 to 80.5 | 1.61 to 8.05 |
| Cc1ccc(S(=O)(=O)c2nnn3c2[nH]c(=O)c2ccc(N4CCN(CC(=O)N5CCN(C)CC5)CC4)cc23)c(C)c1 [Compound 58] |  |  |  | 17.3 to 86.4 | < 1.73 |
| Cc1ccc(S(=O)(=O)c2nnn3c2[nH]c(=O)c2ccc(N4CCN(CC(=O)N5CCCC(N)C5)CC4)cc23)c(C)c1 (centres unmarked) [Compound 143] | +++ (+++: ratio ≤ 25) | +++ (+++: IC50 ≤ 10 μg/mL) | ++ (++: 1 μg/mL < IC50 ≤ 5 μg/mL) |  |  |
| Cc1ccc(S(=O)(=O)c2nnn3c2[nH]c(=O)c2ccc(N4CCN(CC(=O)NCCC(C)(C)C)CC4)cc23)c(C)c1 [Compound 13] |  |  |  | 17.2 to 86.2 | < 1.72 |
| Cc1ccc(S(=O)(=O)c2nnn3c2[nH]c(=O)c2ccc(N4CCCN(CC(=O)N5CCOCC5)CC4)cc23)c(C)c1 [Compound 84] | +++ (+++: ratio ≤ 25) | +++ (+++: IC50 ≤ 10 μg/mL) | ++ (++: 1 μg/mL < IC50 ≤ 5 μg/mL) |  |  |
| Cc1ccc(S(=O)(=O)c2nnn3c2[nH]c(=O)c2ccc(N4CCCN(CC(=O)NC5CCC5)CC4)cc23)c(C)c1 [Compound 51] |  |  |  | 17.7 to 88.7 | < 1.77 |
| Cc1ccc(S(=O)(=O)c2nnn3c2[nH]c(=O)c2ccc(N4CCN(CC(=O)NC5CCC5)CC4)cc23)c(C)c1 [Compound 34] |  |  |  | 18.2 to 91 | < 1.82 |
| CCCNC(=O)CN1CCCN(c2ccc3c(=O)[nH]c4c(S(=O)(=O)c5ccc(C)cc5C)nnn4c3c2)CC1 [Compound 30] |  |  |  | 18.1 to 90.6 | < 1.81 |
| Cc1ccc(S(=O)(=O)c2nnn3c2[nH]c(=O)c2ccc(N4CCN(CC(=O)N5C(C)CCC5C)CC4)cc23)c(C)c1 (centres unmarked) [Compound 74] | +++ (+++: ratio ≤ 25) | ++ (++: 10 μg/mL < IC50 ≤ 50 μg/mL) | +++ (+++: IC50 ≤ 1 μg/mL) |  |  |
| Cc1ccc(S(=O)(=O)c2nnn3c2[nH]c(=O)c2ccc(N4CCN(CC(=O)N5CCC6(CCN(C)CC6)CC5)CC4)cc23)c(C)c1 [Compound 127] |  |  |  | 15.5 to 77.3 | < 1.55 |
| Cc1ccc(S(=O)(=O)c2nnn3c2[nH]c(=O)c2ccc(N4CCN(CC(=O)NCCC(C)C)CC4)cc23)c(C)c1 [Compound 11] |  |  |  | 17.7 to 88.4 | < 1.77 |
| Cc1ccc(S(=O)(=O)c2nnn3c2[nH]c(=O)c2ccc(N4CCN(CC(=O)N5CCCCC5CN)CC4)cc23)c(C)c1 (centres unmarked) [Compound 145] |  |  |  | 16.9 to 84.4 | 1.69 to 8.44 |
| Cc1ccc(S(=O)(=O)c2nnn3c2[nH]c(=O)c2ccc(N4CCN(CC(=O)NCCN)CC4)cc23)c(C)c1 [Compound 131] |  |  |  | 18.6 to 92.8 | 1.86 to 9.28 |
| Cc1ccc(S(=O)(=O)c2nnn3c2[nH]c(=O)c2ccc(N4CCN(CC(=O)NCc5ccco5)CC4)cc23)c(C)c1 [Compound 113] |  |  |  | 17.4 to 86.9 | < 1.74 |
| Cc1ccc(S(=O)(=O)c2nnn3c2[nH]c(=O)c2ccc(N4CCN(CC(=O)N5CCCCC5)CC4)cc23)c(C)c1 [Compound 55] |  |  |  | 17.7 to 88.7 | < 1.77 |
| Cc1ccc(S(=O)(=O)c2nnn3c2[nH]c(=O)c2ccc(N4CCN(CC(=O)NC5CCCCC5)CC4)cc23)c(C)c1 [Compound 38] |  |  |  | 17.3 to 86.5 | < 1.73 |
| Cc1ccc(S(=O)(=O)c2nnn3c2[nH]c(=O)c2ccc(N4CCN(CC(=O)NCC5CCCO5)CC4)cc23)c(C)c1 (centres unmarked) [Compound 96] |  |  |  | 17.3 to 86.3 | < 1.73 |
| Cc1ccc(S(=O)(=O)c2nnn3c2[nH]c(=O)c2ccc(N4CCN(CC(=O)NC5CCC(O)CC5)CC4)cc23)c(C)c1 (centres unmarked) [Compound 43] |  |  |  | < 16.8 | < 1.68 |
| Cc1ccc(S(=O)(=O)c2nnn3c2[nH]c(=O)c2ccc(N4CCCN(CCC(=O)N5CCCC5)CC4)cc23)c(C)c1 [Compound 163] |  |  |  | < 17.3 | 1.73 to 8.65 |
